Measurements as given in ChEMBL document CHEMBL1201862, “PubChem BioAssay data set” (2004).
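How tested: cells in 96-well plates exposed to compound for 48 hours at five concentrations. GI50 is the concentration that inhibits growth by half.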 Active and inactive are the calls of the source. No stated cut-off is given here; in the data, active = GI50 up to about 1.1 µM and inactive = higher.

Key:
Assay in all cases: growth of human tumour cells (NCI), 48 h
SF-539 = tested on: SF-539
DU-145 = tested on: DU-145
MOLT-4 = tested on: MOLT-4
HCT-116 = tested on: HCT-116
NCI-H522 = tested on: NCI-H522
UO-31 = tested on: UO-31
CCRF-CEM = tested on: CCRF-CEM
SK-MEL-5 = tested on: SK-MEL-5
SF-268 = tested on: SF-268
OVCAR-4 = tested on: OVCAR-4
OVCAR-5 = tested on: OVCAR-5
MDA-N = tested on: MDA-N
TK-10 = tested on: TK-10
SN12C = tested on: SN12C
BT-549 = tested on: BT-549
786-0 = tested on: 786-0
NCI-H460 = tested on: NCI-H460
SW-620 = tested on: SW-620
HCT-15 = tested on: HCT-15

## Cc1nc(Nc2ccccc2Cl)sc1C(=O)CC(=O)C(=O)Nc1c(Cl)cccc1Cl
SF-539
  GI50: 26.9 µM (inactive)
DU-145
  GI50: 27 µM (inactive)
MOLT-4
  GI50: 24 µM (inactive)
HCT-116
  GI50: 18.8 µM (inactive)
NCI-H522
  GI50: 19.3 µM (inactive)
UO-31
  GI50: 23 µM (inactive)
CCRF-CEM
  GI50: 28.4 µM (inactive)
SK-MEL-5
  GI50: 31.7 µM (inactive)
SF-268
  GI50: 35.6 µM (inactive)
OVCAR-4
  GI50: 49.1 µM (inactive)
OVCAR-5
  GI50: 24.9 µM (inactive)
MDA-N
  GI50: 40 µM (inactive)
TK-10
  GI50: > 100 µM (inactive)
SN12C
  GI50: 44 µM (inactive)
BT-549
  GI50: 24.2 µM (inactive)
786-0
  GI50: 24.3 µM (inactive)
NCI-H460
  GI50: 34.5 µM (inactive)
SW-620
  GI50: 26.5 µM (inactive)
HCT-15
  GI50: 33.3 µM

## CCO/N=C\c1ccc2oc(-c3ccccc3)cc(=O)c2c1
SF-539
  GI50: 0.168 µM (active)
DU-145
  GI50: 0.502 µM (active)
MOLT-4
  GI50: 0.121 µM (active)
HCT-116
  GI50: 0.181 µM (active)
NCI-H522
  GI50: 0.0247 µM (active)
UO-31
  GI50: 0.394 µM (active)
CCRF-CEM
  GI50: 0.228 µM (active)
SK-MEL-5
  GI50: 0.146 µM (active)
SF-268
  GI50: 0.74 µM (active)
OVCAR-4
  GI50: 5.51 µM (inactive)
OVCAR-5
  GI50: 2.56 µM (inactive)
MDA-N
  GI50: 0.0143 µM (active)
TK-10
  GI50: 2.26 µM (inactive)
SN12C
  GI50: 0.303 µM (active)
BT-549
  GI50: 1.06 µM (active)
786-0
  GI50: 0.501 µM (active)
NCI-H460
  GI50: 0.136 µM (active)
SW-620
  GI50: 0.129 µM (active)
HCT-15
  GI50: 0.0475 µM

## CN(C)CCCn1nc(N)c2nc3cc(Cl)ccc3nc21
SF-539
  GI50: 38.2 µM (inactive)
DU-145
  GI50: 54.8 µM (inactive)
MOLT-4
  GI50: > 50.4 µM (inactive)
HCT-116
  GI50: 30.3 µM (inactive)
NCI-H522
  GI50: 61.9 µM (inactive)
UO-31
  GI50: 28.6 µM (inactive)
CCRF-CEM
  GI50: 31 µM (inactive)
SK-MEL-5
  GI50: 20 µM (inactive)
SF-268
  GI50: 58.1 µM (inactive)
OVCAR-4
  GI50: > 100 µM (inactive)
OVCAR-5
  GI50: 40.4 µM (inactive)
MDA-N
  GI50: 52.7 µM (inactive)
TK-10
  GI50: 54.7 µM (inactive)
SN12C
  GI50: 59.8 µM (inactive)
BT-549
  GI50: > 100 µM (inactive)
786-0
  GI50: 50.7 µM (inactive)
NCI-H460
  GI50: 39.3 µM (inactive)
SW-620
  GI50: 36.2 µM (inactive)
HCT-15
  GI50: 48.9 µM

## Nc1nc(=O)n(C2OC(CO)C(O)C2O)c2ncc(-c3ccc(-c4ccccc4)cc3)nc12 (centres undefined)
SF-539
  GI50: > 100 µM (inactive)
DU-145
  GI50: > 100 µM (inactive)
MOLT-4
  GI50: > 100 µM (inactive)
HCT-116
  GI50: > 100 µM (inactive)
NCI-H522
  GI50: > 100 µM (inactive)
UO-31
  GI50: > 100 µM (inactive)
CCRF-CEM
  GI50: 9.62 µM (inactive)
SK-MEL-5
  GI50: > 100 µM (inactive)
SF-268
  GI50: > 100 µM (inactive)
OVCAR-4
  GI50: > 100 µM (inactive)
OVCAR-5
  GI50: > 100 µM (inactive)
MDA-N
  GI50: > 100 µM (inactive)
TK-10
  GI50: > 100 µM (inactive)
SN12C
  GI50: > 100 µM (inactive)
BT-549
  GI50: > 100 µM (inactive)
786-0
  GI50: 28.4 µM (inactive)
NCI-H460
  GI50: > 100 µM (inactive)
SW-620
  GI50: > 100 µM (inactive)
HCT-15
  GI50: > 100 µM

## CC(=O)OCC1OC(O[C@@H]2C[C@H]3C(C)(C)[C@H](OC(C)=O)CC[C@]3(C)[C@H]3CC[C@@]45C[C@H](O)C[C@H](C)[C@@H]4CC=C5[C@@]32C)C(O)C(O)C1O (some centres undefined)
SF-539
  GI50: 6.59 µM (inactive)
DU-145
  GI50: 8.28 µM (inactive)
MOLT-4
  GI50: 2.32 µM (inactive)
HCT-116
  GI50: 2.08 µM (inactive)
NCI-H522
  GI50: 2.72 µM (inactive)
UO-31
  GI50: 13.1 µM (inactive)
CCRF-CEM
  GI50: 2.81 µM (inactive)
SK-MEL-5
  GI50: 3.24 µM (inactive)
SF-268
  GI50: 4.01 µM (inactive)
OVCAR-4
  GI50: 4.21 µM (inactive)
OVCAR-5
  GI50: 2.18 µM (inactive)
MDA-N
  GI50: 3.61 µM (inactive)
TK-10
  GI50: 8.93 µM (inactive)
SN12C
  GI50: 4.08 µM (inactive)
BT-549
  GI50: 5.3 µM (inactive)
786-0
  GI50: 3.83 µM (inactive)
NCI-H460
  GI50: 3.26 µM (inactive)
SW-620
  GI50: 4.18 µM (inactive)
HCT-15
  GI50: 11.2 µM

## CCN(CC)CCOc1ccc(N2Cc3cc(OC)c(OC)cc3C2=O)cc1
SF-539
  GI50: > 100 µM (inactive)
DU-145
  GI50: > 100 µM (inactive)
MOLT-4
  GI50: > 100 µM (inactive)
HCT-116
  GI50: > 100 µM (inactive)
NCI-H522
  GI50: > 100 µM (inactive)
UO-31
  GI50: < 0.01 µM (active)
CCRF-CEM
  GI50: > 100 µM (inactive)
SK-MEL-5
  GI50: > 100 µM (inactive)
SF-268
  GI50: > 100 µM (inactive)
OVCAR-4
  GI50: > 100 µM (inactive)
OVCAR-5
  GI50: > 100 µM (inactive)
MDA-N
  GI50: > 100 µM (inactive)
TK-10
  GI50: > 100 µM (inactive)
SN12C
  GI50: > 100 µM (inactive)
BT-549
  GI50: > 100 µM (inactive)
786-0
  GI50: > 100 µM (inactive)
NCI-H460
  GI50: > 100 µM (inactive)
SW-620
  GI50: > 100 µM (inactive)
HCT-15
  GI50: > 100 µM

## COc1ccc(C(SCC(N)C(=O)O)(c2ccc(OC)cc2)c2ccc(OC)cc2)cc1 (centres undefined)
SF-539
  GI50: 12.9 µM (inactive)
DU-145
  GI50: > 10 µM (inactive)
MOLT-4
  GI50: 12.6 µM (inactive)
HCT-116
  GI50: 6.98 µM (inactive)
NCI-H522
  GI50: 14.1 µM (inactive)
UO-31
  GI50: 11.9 µM (inactive)
CCRF-CEM
  GI50: 13.7 µM (inactive)
SK-MEL-5
  GI50: > 10 µM (inactive)
SF-268
  GI50: 13.4 µM (inactive)
OVCAR-4
  GI50: 13.8 µM (inactive)
OVCAR-5
  GI50: 13.9 µM (inactive)
MDA-N
  GI50: 3.5 µM (inactive)
TK-10
  GI50: 14.9 µM (inactive)
SN12C
  GI50: 12.7 µM (inactive)
BT-549
  GI50: 12.8 µM (inactive)
786-0
  GI50: 13.4 µM (inactive)
NCI-H460
  GI50: 11.3 µM (inactive)
SW-620
  GI50: > 10 µM (inactive)
HCT-15
  GI50: 11.6 µM

## O=C1/C(=C/c2ccc([N+](=O)[O-])cc2)C(=O)N(c2ccccc2)C1c1ccccc1 (centres undefined)
SF-539
  GI50: > 10 µM (inactive)
DU-145
  GI50: > 10 µM (inactive)
MOLT-4
  GI50: > 10 µM (inactive)
HCT-116
  GI50: > 10 µM (inactive)
NCI-H522
  GI50: > 10 µM (inactive)
UO-31
  GI50: > 10 µM (inactive)
CCRF-CEM
  GI50: > 10 µM (inactive)
SK-MEL-5
  GI50: > 10 µM (inactive)
SF-268
  GI50: > 10 µM (inactive)
OVCAR-4
  GI50: > 10 µM (inactive)
OVCAR-5
  GI50: > 10 µM (inactive)
MDA-N
  GI50: > 10 µM (inactive)
TK-10
  GI50: > 10 µM (inactive)
SN12C
  GI50: > 10 µM (inactive)
BT-549
  GI50: > 10 µM (inactive)
786-0
  GI50: > 10 µM (inactive)
NCI-H460
  GI50: > 10 µM (inactive)
SW-620
  GI50: > 10 µM (inactive)
HCT-15
  GI50: > 10 µM

## COc1cc2c(cc1OC)C(=O)/C(=C/c1cc(C)cc(C)c1)C2
SF-539
  GI50: 0.0871 µM (active)
DU-145
  GI50: 0.198 µM (active)
MOLT-4
  GI50: 0.504 µM (active)
HCT-116
  GI50: 0.0445 µM (active)
NCI-H522
  GI50: 0.0451 µM (active)
UO-31
  GI50: 1.95 µM (inactive)
CCRF-CEM
  GI50: 0.0514 µM (active)
SK-MEL-5
  GI50: 0.0239 µM (active)
SF-268
  GI50: 12.9 µM (inactive)
OVCAR-4
  GI50: 19.8 µM (inactive)
OVCAR-5
  GI50: 1.09 µM (active)
MDA-N
  GI50: < 0.0156 µM (active)
TK-10
  GI50: 21.1 µM (inactive)
SN12C
  GI50: 0.318 µM (active)
BT-549
  GI50: 11.3 µM (inactive)
786-0
  GI50: 0.0982 µM (active)
NCI-H460
  GI50: 0.06 µM (active)
SW-620
  GI50: 0.0394 µM (active)
HCT-15
  GI50: 0.0296 µM

## O=C(/C(=C/c1cccs1)c1ccccc1)c1ccccc1
SF-539
  GI50: 17.5 µM (inactive)
DU-145
  GI50: > 100 µM (inactive)
MOLT-4
  GI50: 82.4 µM (inactive)
HCT-116
  GI50: > 100 µM (inactive)
NCI-H522
  GI50: 53.7 µM (inactive)
UO-31
  GI50: > 100 µM (inactive)
CCRF-CEM
  GI50: > 100 µM (inactive)
SK-MEL-5
  GI50: > 100 µM (inactive)
SF-268
  GI50: > 100 µM (inactive)
OVCAR-4
  GI50: 35.2 µM (inactive)
OVCAR-5
  GI50: > 100 µM (inactive)
MDA-N
  GI50: > 100 µM (inactive)
TK-10
  GI50: > 100 µM (inactive)
SN12C
  GI50: 82.2 µM (inactive)
BT-549
  GI50: > 100 µM (inactive)
786-0
  GI50: 26.2 µM (inactive)
NCI-H460
  GI50: > 100 µM (inactive)
SW-620
  GI50: > 100 µM (inactive)
HCT-15
  GI50: > 100 µM

## Cc1ccc(O)c(-c2csc(NCN3CCN(CNc4nc(-c5cc(C)ccc5O)cs4)CC3)n2)c1
SF-539
  GI50: > 100 µM (inactive)
DU-145
  GI50: > 100 µM (inactive)
MOLT-4
  GI50: 15.2 µM (inactive)
HCT-116
  GI50: > 100 µM (inactive)
NCI-H522
  GI50: > 100 µM (inactive)
UO-31
  GI50: > 100 µM (inactive)
CCRF-CEM
  GI50: 20.5 µM (inactive)
SK-MEL-5
  GI50: > 100 µM (inactive)
SF-268
  GI50: > 100 µM (inactive)
OVCAR-4
  GI50: > 100 µM (inactive)
OVCAR-5
  GI50: > 100 µM (inactive)
MDA-N
  GI50: > 100 µM (inactive)
TK-10
  GI50: > 100 µM (inactive)
SN12C
  GI50: > 100 µM (inactive)
BT-549
  GI50: > 100 µM (inactive)
786-0
  GI50: > 100 µM (inactive)
NCI-H460
  GI50: > 100 µM (inactive)
SW-620
  GI50: 77.3 µM (inactive)
HCT-15
  GI50: > 100 µM
